We go through 7 substances from US20030088057A1, “PEPTIDE SUBSTRATES PHOSPHORYLATED BY P21-ACTIVAGED PROTEIN KINASE STATEMENT REGARDING FEDERALLY SPONSORED REASEARCH OR DEVELOPMENT” (priority 1998, published 2003).

Assay [1] has as its system γ-PAK. Put plainly: Rates of phosphorylation of synthetic peptides by γ-PAK. The format is biochemical, rabbit. To be noted: for substrate for γ-PAK (in words): synthetic peptides; for 32P incorporated, %: AKRASAA taken as 100%. The text has this: (§1) A. Materials. γ-PAK was purified from rabbit reticulocytes to apparent homogeneity by chromatography on DEAE-cellulose, SP-Sepharose, protamine agarose, and FPLC on Mono S and Mono Q. Histone I (type IIIS), mixed histone (type IIAS), trypsin (L-1-tosylamido-2-phenylethyl chloromethyl ketone treated), soybean trypsin inhibitor, bovine serum albumin (fatty acid free), and myelin basic protein were purchased from Sigma. Purified histones 2B and 4 were purchased from Boehringer-Mannheim. Myosin light chain from rabbit skeletal muscle was a gift from Dr. James Stull, University of Texas Southwestern Medical Center, Dallas, Tex.; rat prolactin was provided by Dr. Ameae Walker, University of California, Riverside, Calif.; and the purified catalytic subunit of cAMP-dependent protein kinase from bovine heart was a gift from Dr. William H. Fletcher, J. L. Pettis Memorial V. A. Hospital, Loma Linda, Calif. Protein kinase C was purified from bovine brain according to the procedure of Walton et al. [Walton, G. M., et al., Anal Biochem., 161:425-437 (1987)], with modifications [Venema, R. C., et al., J. Biol. Chem., 266:5298-5302 (1991)]. The clone for GST-Cdc42 was generously provided by Dr. Channing Der, University of North Carolina, Chapel Hill, N.C. Cellulose thin-layer chromatography sheets were from Kodak.
(§2) D. Phosphorylation Assays. Phosphorylation of protein substrates was carried out in 35 μL reaction mixtures containing 20 mM Tris-HCl, pH 7.4, 10 mM MgCl2, 30 mM 2-mercaptoethanol, 0.2 mM ATP (specific activity =1000 cpm/pmol), 2 μg of protein substrate, and 20 units of active γ-PAK (an enzyme unit is defined as the amount of enzyme that incorporates 1 pmol of phosphate into histone IIAS/ min at 30°. Under these conditions, phosphate incorporation was linear and initial rates of phosphorylation were measured. After incubation at 30° C. for 15 min, reactions were terminated by the addition of 5 μL of 100 mM nonlabeled ATP and sample buffer for gel electrophoresis [Hathaway, G. M., et al., Methods Enzymol., 60:495-511 (1979)]. Reaction mixtures were subjected to SDS-PAGE on 15% polyacrylamide gels followed by autoradiography. Phosphorylation was quantified by excising the protein band and counting the incorporated ^32P in a liquid scintillation counter. The specific activity of γ-PAK was 400 pmol min^−1 μg^−1 as reported previously using 0.2 mM ATP and 1 mg/mL mixed histone as substrate [Rooney, R. D., et al., (1996), supra].
(§3) Assays with peptides (I mM) were carried out with γ-PAK (1.6-5.6 units) in 25 μL reaction mixtures incubated for 30 min at 30° C. under conditions described above, except that 0.4 mg/mL of bovine serum albumin was added and the specific activity of ATP was 300-2000 cpm/pmol. Reactions were terminated with 5 μL of 100 mM ATP, and the amount of ^32p incorporated was quantitated by precipitation of 20 μL aliquots on P81 phosphocellulose paper with 75 mM H3PO4 as described previously [Bensen, E. S., et al., Biochim. Biophys. Acta, 1292:249-258 (1996)]. Peptides containing only one basic amino acid were analyzed by thin-layer electrophoresis on cellulose sheets for 2 h at 600 V with pyridine/acetic acid/water (10:100:890), pH 3.5, as solvent, as described previously [Bensen, E. S., et al., supra]. Activation of γ-PAK by autophosphorylation in the presence of Cdc42(GTPγS) was performed as previously described [Jakobi, R., et al., supra]. γ-PAK was also activated by limited digestion with trypsin as described previously [Rooney, R. D., et al., (1996), supra].
Target sequence in this assay (Q29502 249-500 limits assumed): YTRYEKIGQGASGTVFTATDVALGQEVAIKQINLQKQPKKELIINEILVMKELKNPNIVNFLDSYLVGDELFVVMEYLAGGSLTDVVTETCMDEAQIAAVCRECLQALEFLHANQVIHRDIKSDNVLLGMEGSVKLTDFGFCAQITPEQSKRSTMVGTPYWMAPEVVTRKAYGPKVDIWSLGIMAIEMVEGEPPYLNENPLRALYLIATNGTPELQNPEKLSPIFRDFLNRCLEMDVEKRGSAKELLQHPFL

The test system of assay [2] is γ-PAK. Put plainly: Kinetic parameters (Km, Vmax) for phosphorylation of synthetic peptides by γ-PAK. The format is biochemical, rabbit. To be noted: for Km: read-out: Km. The protocol: as §3
Target sequence in this assay (Q29502 249-500 limits assumed): as above
The target in assay [3] is T1, γ-PAK (Oryctolagus cuniculus, UniProt Q29502).
T1 construct: γ-PAK was purified from rabbit reticulocytes to apparent homogeneity; from tissue; host or cells: rabbit reticulocytes (γ-PAK)
T1 sequence (Q29502 2-524 limits assumed): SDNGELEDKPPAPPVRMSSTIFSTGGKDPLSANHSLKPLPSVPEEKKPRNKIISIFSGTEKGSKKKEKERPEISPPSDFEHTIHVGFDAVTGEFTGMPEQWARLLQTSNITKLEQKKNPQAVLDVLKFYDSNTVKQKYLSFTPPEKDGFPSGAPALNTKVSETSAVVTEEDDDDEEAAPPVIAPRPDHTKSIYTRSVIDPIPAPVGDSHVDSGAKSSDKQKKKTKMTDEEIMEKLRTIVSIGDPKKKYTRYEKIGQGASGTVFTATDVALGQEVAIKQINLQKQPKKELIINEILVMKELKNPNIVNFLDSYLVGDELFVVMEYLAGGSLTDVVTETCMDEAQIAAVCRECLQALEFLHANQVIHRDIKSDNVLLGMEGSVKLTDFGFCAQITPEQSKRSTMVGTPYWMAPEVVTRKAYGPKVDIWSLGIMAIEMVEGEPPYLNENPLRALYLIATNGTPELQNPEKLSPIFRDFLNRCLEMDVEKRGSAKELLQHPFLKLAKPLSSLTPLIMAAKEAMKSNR
Put plainly: Phosphorylation of heptapeptides by Cdc42-activated γ-PAK with ATP(Mg) and ATP(Mn). The format is biochemical, rabbit. Particulars: γ-PAK 2.5 units, Cdc42(GTPγS)-activated; 10 mM MgCl2 or 6 mM MnCl2. The method, then: Synthetic heptapeptides were used to examine the activity of γ-PAK with manganese and magnesium. The peptides were incubated with γ-PAK (2.5 units), activated by autophosphorylation in the presence of Cdc42(GTPγS) and 10 mM MgCl2 or 6 mM MnCl2 as described under Experimental Procedures.

In another assay the test system is PKC. Put plainly: Rates of phosphorylation of synthetic peptides by PKC. The assay is classed as biochemical, bovine. Particulars: for 32P incorporated: PKC (3.4 units), with Ca2+ and phospholipids, 0.14 mM ATP; for 32P incorporated, %: PKC, AKRASAA taken as 100%.
Source text: as §1
(§4) Reactions with PKA (10.5 units) were carried out under the same conditions as with γ-PAK except that 0.14 mM ATP was used. Reactions with PKC (3.4 units) were performed as with PKA, with the addition of 0.4 mM CaCl2, phosphatidylinositol (15 μg/mL), phosphatidylserine (15 μg/ mL), and 1,2-diolein (3 μg/mL), as described [Tuazon, P. T., et al., (1989), supra]. A unit of PKA or PKC is defined as the amount of enzyme that incorporates 1 pmol of phosphate/min at 30° C. into histone IIAS or histone 1, respectively.
PKA and PKC are known to require basic amino acids on the N-terminal side of the phosphorylatable serine/ threonine. To distinguish their substrate specificities from that of γ-PAK, the relative rates of phosphorylation were determined with the synthetic peptide substrates using the conditions for γ-PAK, with the addition of Ca^2+ and phospholipids for PKC. The rates shown in Table 5 are calculated with equivalent units of enzyme; the rate of phosphorylation of the peptide AKRASAA (SEQ ID NO:6) is taken as 100% for all three enzymes. As would be expected, PKA preferentially phosphorylated the peptides that contained RR or RK at the −3 and −2 positions and with […] residues or proline at the −4 and −1 positions inhibitory. PKC recognized SKR>RKS>KKS. The most notable difference between γ-PAK and PKA or PKC is the effect of acidic residues on the susceptibility of the peptide to be phosphorylated. An acidic residue in the −1 or −4 position was beneficial for γ-PAK but was detrimental for both PKA and PKC (Table 5). […] In addition, γ-PAK could not tolerate an arginine in the −3 position when lysine was in the −2 position.

The target in a further assay is T2, PKA (Bos taurus, UniProt P00517).
T2 construct: the purified catalytic subunit of cAMP-dependent protein kinase from bovine heart was a gift; from tissue; host or cells: bovine heart (gift from Dr. William H. Fletcher)
As to the kind of experiment: Rates of phosphorylation of synthetic peptides by PKA. The format is biochemical, bovine. To be noted: for 32P incorporated: PKA (10.5 units), 0.14 mM ATP.
Source text: as §1, with “Myosin light chain from rabbit skeletal muscle was a gift from Dr. James Stull, University of Texas Southwestern Medical Center, Dallas, Tex.; rat prolactin was provided by Dr. Ameae Walker, University of California, Riverside, Calif.; and the purified catalytic subunit of cAMP-dependent protein kinase from bovine heart was a gift from Dr. William H. Fletcher, J. L. Pettis Memorial V. A. Hospital, Loma Linda, Calif.” left out
as §4
PKA and PKC are known to require basic amino acids on the N-terminal side of the phosphorylatable serine/ threonine. To distinguish their substrate specificities from that of γ-PAK, the relative rates of phosphorylation were determined with the synthetic peptide substrates using the conditions for γ-PAK, with the addition of Ca^2+ and phospholipids for PKC.

For assay [4], the system named is γ-PAK. As to the kind of experiment: Phosphorylation of protein substrates by γ-PAK. The assay is classed as biochemical, rabbit. Particulars: for substrate for γ-PAK (in words): proteins. The method, then:
as §2
Target sequence in this assay (Q29502 249-524 limits assumed): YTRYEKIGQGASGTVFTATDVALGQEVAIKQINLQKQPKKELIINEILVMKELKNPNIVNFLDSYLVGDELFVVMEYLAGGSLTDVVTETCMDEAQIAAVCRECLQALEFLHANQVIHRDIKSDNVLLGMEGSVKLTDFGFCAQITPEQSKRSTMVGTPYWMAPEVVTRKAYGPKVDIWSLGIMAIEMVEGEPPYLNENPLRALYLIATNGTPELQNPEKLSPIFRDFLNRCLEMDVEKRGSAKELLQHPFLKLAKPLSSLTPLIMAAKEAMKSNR
A number of proteins were examined as substrates, and their relative rates of phosphorylation were compared (Table 6).

The mark [5] stands for this setting: Cdc42(GTPγS)-activated γ-PAK, peptide 1 mM, KKRKSAA = 100.
The mark [6] stands for this setting: proteolytically (trypsin) activated γ-PAK, peptide 1 mM, compared to KKRKSAA = 100.
Setting [7] is: proteolytically activated γ-PAK (5.6 units), peptide 1 mM, 30 min at 30° C.
The mark [8] stands for this setting: γ-PAK, calculated with equivalent units of enzyme.
Where [9] appears, read: Table 3, influence of acidic amino acids.
[10] abbreviates: Table 4, influence of proline and glycine.

“Also recorded” adds a separate entry of the source. Read-outs that look alike come from different tables or passages of the source. No end group written: not given here.

Take “AKAASAA (AKAASAA-NH2) [synthetic peptide with an amide C-terminal group]”: the “rel rate (%)” value with γ-PAK [1] (setting [5]) was 3%; in the assay on γ-PAK [1] (setting [6]), 2%. This substance registered a 32P incorporated in the assay with γ-PAK [1] (setting [7]) of 5 pmol/min/µg. Further, the “substrate for γ-PAK (in words)” value in the assay on γ-PAK [1] is reported as “did not serve as substrate; also recorded: could not be phosphorylated”. Besides, the Km with γ-PAK [2] (Table 2, influence of basic amino acids, γ-PAK 1.6 units, ATP 0.2 mM) is more than 5000 µM. Further, the “phosphorylation using ATP(Mg) or ATP(Mn) (in words)” value (from here on “phosphorylation … (in words)”) with γ-PAK [3] is “not phosphorylated”.
As for “AKKASAA (AKKASAA-NH2) [synthetic peptide with an amide C-terminal group]”, the “substrate for γ-PAK (in words)” value in the assay on γ-PAK [1] was “poor substrates”. Further, the “phosphorylation … (in words)” value with γ-PAK [3] is “not phosphorylated”.
“AKRESAA (AKRESAA-NH2) [synthetic peptide with an amide C-terminal group]”: the “rel rate (%)” value in the assay with γ-PAK [1] (setting [5]) came to 295%; with γ-PAK [1] (setting [6]), 247%. Further, the 32P incorporated is 750 pmol/min/µg with γ-PAK [1] (setting [7]), 47.2 pmol/unit in the assay with γ-PAK [1] (setting [8]), 0.4 pmol/unit with PKC and 1.8 pmol/unit with PKA. Besides, the “32P incorporated, %” value amounted to 176% in the assay on γ-PAK [1] (γ-PAK); 12% in the assay on PKC; 38% with PKA (PKA, AKRASAA taken as 100%). Also, the “rate of phosphorylation compared to AKRASAA” value in the assay with γ-PAK [1] (γ-PAK, relative to AKRASAA) amounted to 175%. In addition, the “increase of Km compared to AKRASAA” value in the assay on γ-PAK [2] is reported as approximately 3 fold. In addition, the “increase of Vmax compared to AKRASAA” value in the assay on γ-PAK [2] came out at 6 fold. The “overall rate of phosphorylation (Vmax/Km) compared to AKRASAA” value in the assay with γ-PAK [2] is approximately 2.2 fold. Also, the Vmax with γ-PAK [2] (setting [9]) and in the assay with γ-PAK [2] (text summary b32) was 6.62 pmol/min each time. Further, the Km in the assay with γ-PAK [2] (setting [9]) was 1350 µM. Also, in the assay with γ-PAK [3], the “phosphorylation … (in words)” value was “good substrates”.
Regarding “PKRASAA (PKRASAA-NH2) [synthetic peptide with an amide C-terminal group]”, the “rel rate (%)” value with γ-PAK [1] (setting [5]) came out at 184%; in the assay on γ-PAK [1] (setting [6]), 209%. Further, the 32P incorporated was 636 pmol/min/µg with γ-PAK [1] (setting [7]), 40.5 pmol/unit in the assay with γ-PAK [1] (setting [8]), 8.7 pmol/unit in the assay on PKC and 6.9 pmol/unit with PKA. Besides, the “32P incorporated, %” value is on record as 151% with γ-PAK [1] (γ-PAK) and 264% in the assay on PKC. In addition, the “decrease of Km compared to AKRASAA” value in the assay on γ-PAK [2] was “≈ 2 fold”. Moreover, the “increase of Vmax compared to AKRASAA” value in the assay with γ-PAK [2] is reported as “no effect”. Besides, the “overall rate of phosphorylation (Vmax/Km) compared to AKRASAA” value in the assay with γ-PAK [2] worked out at 2 fold. The Vmax with γ-PAK [2] (setting [10]) came out at 1.10 pmol/min. In the assay with γ-PAK [2] (setting [10]), the Km is 240 µM.
With casein, in the assay with γ-PAK [4], the “substrate for γ-PAK (in words)” value is reported as “not substrates”.
On to “cdc42: small G protein; not a substrate for γ-PAK (data not shown)”, for which, in the assay on γ-PAK [4], the “substrate for γ-PAK (in words)” value is on record as “not substrates”.
Substance protamine registered a 32P incorporated in the assay with γ-PAK [4] (2 μg protein substrate, 20 units active γ-PAK, 15 min at 30° C.) of 0 pmol. Further, the “substrate for γ-PAK (in words)” value in the assay with γ-PAK [4] is “not a good substrate; also recorded: did not serve as substrates”; in the assay with γ-PAK [4] (listed as Protamine) it was “not substrates”. The same substance had a rel rate in the assay with γ-PAK [4] (relative to histone 2B = 100) of 0%.
